Results taken from the supplement of paper PMC6045584.
± gives the standard deviation of the averaged measurements.

Compound: COc1cccc2c1C(=O)c1c(O)c3c(c(O)c1C2=O)C[C@@](O)(C(=O)CO)C[C@@H]3O[C@H]1C[C@H](N)[C@H](O)[C@H](C)O1 [DOXORUBICIN]
Assay: surviving fraction relative to DMSO-only wells; higher = less growth inhibition
Settings: 1000 nM; exposure time: 5 days
Summary of the method: (§1)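 Surviving fraction is CellTiter-Glo luminescence divided by the median of wells given DMSO only. For this, log-phase tumour cell lines went into 384-well plates at 250–500 cells per well and, 24 hours later, into five days of continuous inhibitor exposure at 0.5, 1, 5, 10, 50, 100, 500 and 1000 nM. Lines were screened three times and retained only if replicate Pearson r >0.7 and median Z' >0.3.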

Test System	surviving fraction
MDAMB468 BREAST	0.038 ± 0.0072

Compound: O=c1[nH]cc(F)c(=O)[nH]1 [FLUOROURACIL]
Assay: as above
Settings: 0.5 nM; exposure time: 5 days
Summary of the method: as §1

Test System	surviving fraction
SUM149.B1*.S BREAST	1.1 ± 0.044
93VU HEADNECK	1.01 ± 0.11
LM7 BONE	0.976 ± 0.039
143B BONE	1.12 ± 0.15
SUM159 BREAST	1.1 ± 0.024
SUM149 BREAST	0.934 ± 0.029
MDAMB361 BREAST	0.725 ± 0.094
SAOS2 BONE	1.04 ± 0.073
ASKA SYNOVIAL	1.1 ± 0.072
HCC1395 BREAST	1.01 ± 0.093
HCC1954 BREAST	1.13 ± 0.31
CME SYNOVIAL	1.35 ± 0.12
VCAP PROSTATE	1.03 ± 0.11
YAMATO SYNOVIAL	1.2 ± 0.08
HCC202 BREAST	1.03 ± 0.41
HELA CERVIX	1.07 ± 0.017
SG27 HEADNECK	1.07 ± 0.029
CAL72 BONE	1.07 ± 0.014
MDAMB134 BREAST	0.823 ± 0.042
C33A CERVIX	1 ± 0.086

Test System	surviving fraction
SKBR3 BREAST	0.988 ± 0.088
MHM BONE	1.04 ± 0.07
VP229 BREAST	1.08 ± 0.036
SYO1 SYNOVIAL	1.02 ± 0.012
ZR751 BREAST	1.21 ± 0.13
KPD BONE	0.982 ± 0.018
SIHA CERVIX	1.01 ± 0.043
DU4475 BREAST	0.972 ± 0.062
BT549 BREAST	1.07 ± 0.13
COLO320DM LARGE INTESTINE	1.07 ± 0.14
T47D BREAST	1.02 ± 0.03
H23 LUNG	1.06 ± 0.062
NCIH441 LUNG	1.08 ± 0.054
HCT15 LARGE INTESTINE	1.05 ± 0.062
SCC90 HEADNECK	0.968 ± 0.033
MDAMB453 BREAST	1.01 ± 0.092
MG63 BONE	1.02 ± 0.041
A549 LUNG	1.093 ± 0.0015
MDAMB468 BREAST	0.887 ± 0.039

Same assay, conditions: 1 nM; exposure time: 5 days

Test System	surviving fraction
SUM149.B1*.S BREAST	1.06 ± 0.043
93VU HEADNECK	1 ± 0.052
LM7 BONE	0.992 ± 0.027
143B BONE	1.11 ± 0.079
SUM159 BREAST	1.07 ± 0.023
SUM149 BREAST	0.969 ± 0.064
MDAMB361 BREAST	0.747 ± 0.067
SAOS2 BONE	1.05 ± 0.037
ASKA SYNOVIAL	1.06 ± 0.081
HCC1395 BREAST	0.966 ± 0.21
HCC1954 BREAST	1.21 ± 0.17
CME SYNOVIAL	1.26 ± 0.024
VCAP PROSTATE	1.06 ± 0.026
YAMATO SYNOVIAL	1.15 ± 0.056
HCC202 BREAST	1.22 ± 0.26
HELA CERVIX	0.993 ± 0.031
SG27 HEADNECK	1.08 ± 0.13
CAL72 BONE	1.056 ± 0.0093
MDAMB134 BREAST	0.964 ± 0.16
C33A CERVIX	1.12 ± 0.043

Test System	surviving fraction
SKBR3 BREAST	0.894 ± 0.085
MHM BONE	1.02 ± 0.028
VP229 BREAST	0.988 ± 0.05
SYO1 SYNOVIAL	0.989 ± 0.01
ZR751 BREAST	1.26 ± 0.11
KPD BONE	0.922 ± 0.052
SIHA CERVIX	0.989 ± 0.052
DU4475 BREAST	1.06 ± 0.068
BT549 BREAST	1.06 ± 0.024
COLO320DM LARGE INTESTINE	1.06 ± 0.051
T47D BREAST	1.03 ± 0.03
H23 LUNG	1.02 ± 0.034
NCIH441 LUNG	1.05 ± 0.076
HCT15 LARGE INTESTINE	1.01 ± 0.051
SCC90 HEADNECK	0.982 ± 0.096
MDAMB453 BREAST	1.01 ± 0.13
MG63 BONE	1 ± 0.028
A549 LUNG	1.055 ± 0.007
MDAMB468 BREAST	0.885 ± 0.095

Same assay, conditions: 5 nM; exposure time: 5 days

Test System	surviving fraction
SUM149.B1*.S BREAST	1.12 ± 0.028
93VU HEADNECK	1.07 ± 0.089
LM7 BONE	1.05 ± 0.043
143B BONE	1.14 ± 0.11
SUM159 BREAST	1.08 ± 0.027
SUM149 BREAST	0.908 ± 0.028
MDAMB361 BREAST	0.8 ± 0.092
SAOS2 BONE	1.11 ± 0.046
ASKA SYNOVIAL	1.17 ± 0.021
HCC1395 BREAST	1.13 ± 0.1
HCC1954 BREAST	1.13 ± 0.07
CME SYNOVIAL	1.27 ± 0.032
VCAP PROSTATE	1.09 ± 0.044
YAMATO SYNOVIAL	1.3 ± 0.021
HCC202 BREAST	1.02 ± 0.15
HELA CERVIX	0.997 ± 0.019
SG27 HEADNECK	0.991 ± 0.016
CAL72 BONE	1.03 ± 0.051
MDAMB134 BREAST	0.832 ± 0.082
C33A CERVIX	1.08 ± 0.11

Test System	surviving fraction
SKBR3 BREAST	1.03 ± 0.074
MHM BONE	1.06 ± 0.047
VP229 BREAST	1.1 ± 0.13
SYO1 SYNOVIAL	0.962 ± 0.029
ZR751 BREAST	0.966 ± 0.051
KPD BONE	1.02 ± 0.07
SIHA CERVIX	1.06 ± 0.011
DU4475 BREAST	0.934 ± 0.12
BT549 BREAST	1.05 ± 0.21
COLO320DM LARGE INTESTINE	1.09 ± 0.019
T47D BREAST	1 ± 0.0033
H23 LUNG	1.05 ± 0.026
NCIH441 LUNG	1.06 ± 0.11
HCT15 LARGE INTESTINE	1.043 ± 0.01
SCC90 HEADNECK	1 ± 0.039
MDAMB453 BREAST	1.06 ± 0.11
MG63 BONE	1.05 ± 0.021
A549 LUNG	1.051 ± 0.001
MDAMB468 BREAST	0.919 ± 0.064

Same assay, conditions: 10 nM; exposure time: 5 days

Test System	surviving fraction
SUM149.B1*.S BREAST	1.04 ± 0.04
93VU HEADNECK	1.05 ± 0.11
LM7 BONE	1.01 ± 0.047
143B BONE	1.11 ± 0.094
SUM159 BREAST	1.06 ± 0.026
SUM149 BREAST	0.909 ± 0.038
MDAMB361 BREAST	0.758 ± 0.12
SAOS2 BONE	1.09 ± 0.02
ASKA SYNOVIAL	1.04 ± 0.024
HCC1395 BREAST	1.16 ± 0.072
HCC1954 BREAST	1.26 ± 0.21
CME SYNOVIAL	1.21 ± 0.036
VCAP PROSTATE	1.22 ± 0.097
HCC202 BREAST	1.13 ± 0.24
HELA CERVIX	1.03 ± 0.037
SG27 HEADNECK	1.08 ± 0.053
CAL72 BONE	1.05 ± 0.039
MDAMB134 BREAST	0.877 ± 0.18
C33A CERVIX	1.16 ± 0.05

Test System	surviving fraction
SKBR3 BREAST	0.986 ± 0.015
MHM BONE	1.04 ± 0.039
VP229 BREAST	0.92 ± 0.16
SYO1 SYNOVIAL	0.974 ± 0.024
ZR751 BREAST	1.12 ± 0.18
KPD BONE	1.03 ± 0.044
SIHA CERVIX	1.08 ± 0.066
DU4475 BREAST	1.13 ± 0.12
BT549 BREAST	0.95 ± 0.12
COLO320DM LARGE INTESTINE	1.05 ± 0.1
T47D BREAST	1.01 ± 0.03
H23 LUNG	1.04 ± 0.036
NCIH441 LUNG	1.1 ± 0.021
HCT15 LARGE INTESTINE	0.995 ± 0.06
SCC90 HEADNECK	1.012 ± 0.009
MDAMB453 BREAST	0.987 ± 0.079
MG63 BONE	1.03 ± 0.019
A549 LUNG	1.04 ± 0.032
